Laboratory results from patent US9969716B2, “Indole derivatives as modulators of methyl modifying enzymes, compositions and uses thereof” (Constellation Pharmaceuticals, Inc., priority 2013, dated 2018).
Read-outs that look alike come from different tables or passages of the source.

Legend:
Y641N EZH2 = Y641N EZH2 (Homo sapiens, UniProt Q15910, Y641N); assay: Y641N EZH2 assay (as EZH2 assay, H3K27Me2 oligonucleosomes as substrate); format: biochemical
Protocol: (§1) EZH2 Assay: Assays were carried out by mixing rPRC2 together with biotinylated oligonucleosome substrates in the presence of the radio-labeled enzyme co-factor, S-adenosyl-L-methionine (^3H SAM) (Perkin Elmer) and monitoring the enzymatically mediated transfer of tritiated methyl groups from ^3H SAM to histone lysine residues. The amount of resulting tritiated methyl histone product was measured by first capturing the biotinylated oligonucleosomes in streptavidin (SAV) coated FlashPlates (Perkin Elmer), followed by a wash step to remove un-reacted ^3H SAM, and then counting on a TopCount NXT 384 well plate scintillation counter (Perkin Elmer). The final assay conditions for EZH2 were as follows: 50 mM Tris Buffer pH 8.5, 1 mM DTT, 69 μM Brij-35 detergent, 5.0 mM MgCl2, 0.1 mg/mL BSA, 0.2 μM ^3H SAM, 0.2 μM biotinylated oligonucleosomes, 3.6 μM H3K27me3 peptide and 2 nM EZH2.
(§2) A 12.5 μL volume of the HMT enzyme, H3K27me3 peptide and oligonucleosome substrate in assay buffer was added to each well of the assay plate using a Multidrop Combi (ThermoFisher). Compounds were pre-incubated with the enzyme for 20 min, followed by initiation of the methyltransferase reaction by addition of 12.5 μL of ^3H SAM in assay buffer (final volume=25 μL). The final concentrations of compounds ranged from a top default concentration of 80 μM down to 0.16 μM in ten 2-fold dilution steps. Reactions were carried out for 60 minutes and quenched with 20 μL per well of 1.96 mM SAH, 50 mM Tris pH 8.5, 200 mM EDTA. Stopped reactions were transferred to SAV coated Flashplates (Perkin Elmer), incubated for 120 min, washed with a plate washer, and then read on the TopCount NXT (1.0 min/well) to measure the amount of methyl histone product formed during the reaction.

EZH2 = EZH2 (Homo sapiens, UniProt Q15910); assay: EZH2 assay (rPRC2, 3H SAM methyl transfer to biotinylated oligonucleosomes, FlashPlate); format: biochemical
Sequence of EZH2 (Q15910 whole entry): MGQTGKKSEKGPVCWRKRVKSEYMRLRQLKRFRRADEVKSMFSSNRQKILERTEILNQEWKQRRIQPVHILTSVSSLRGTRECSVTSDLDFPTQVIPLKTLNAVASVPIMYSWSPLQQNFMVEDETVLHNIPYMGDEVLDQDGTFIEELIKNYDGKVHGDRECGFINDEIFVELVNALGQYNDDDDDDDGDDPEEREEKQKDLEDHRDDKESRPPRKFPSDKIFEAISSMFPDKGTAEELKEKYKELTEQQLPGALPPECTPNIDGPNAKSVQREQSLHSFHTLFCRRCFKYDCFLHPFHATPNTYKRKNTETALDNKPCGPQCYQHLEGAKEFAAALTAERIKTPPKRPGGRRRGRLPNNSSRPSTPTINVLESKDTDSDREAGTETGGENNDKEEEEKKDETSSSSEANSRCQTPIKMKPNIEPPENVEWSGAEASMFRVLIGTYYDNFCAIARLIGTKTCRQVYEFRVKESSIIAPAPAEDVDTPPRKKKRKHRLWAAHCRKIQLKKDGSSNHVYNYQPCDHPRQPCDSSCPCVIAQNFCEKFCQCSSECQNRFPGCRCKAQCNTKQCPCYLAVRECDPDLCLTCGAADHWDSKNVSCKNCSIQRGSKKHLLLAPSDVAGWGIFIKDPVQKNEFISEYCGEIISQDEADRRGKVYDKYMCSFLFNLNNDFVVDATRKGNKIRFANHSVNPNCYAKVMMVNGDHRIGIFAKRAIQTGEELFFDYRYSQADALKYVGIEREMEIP
Sequence of EZH2 (O75530 whole entry partner): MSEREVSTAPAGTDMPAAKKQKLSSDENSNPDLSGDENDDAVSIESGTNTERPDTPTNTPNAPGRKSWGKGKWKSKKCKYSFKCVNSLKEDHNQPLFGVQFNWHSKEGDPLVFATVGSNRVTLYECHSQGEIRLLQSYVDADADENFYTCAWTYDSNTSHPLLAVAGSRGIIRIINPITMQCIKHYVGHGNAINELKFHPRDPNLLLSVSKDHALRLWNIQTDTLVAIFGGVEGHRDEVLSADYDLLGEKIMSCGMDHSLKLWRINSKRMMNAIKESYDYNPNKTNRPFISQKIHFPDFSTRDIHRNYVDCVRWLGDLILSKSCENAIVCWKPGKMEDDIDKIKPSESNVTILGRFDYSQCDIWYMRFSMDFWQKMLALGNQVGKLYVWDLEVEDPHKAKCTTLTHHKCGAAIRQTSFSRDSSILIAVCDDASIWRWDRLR
Sequence of EZH2 (Q15022 whole entry partner): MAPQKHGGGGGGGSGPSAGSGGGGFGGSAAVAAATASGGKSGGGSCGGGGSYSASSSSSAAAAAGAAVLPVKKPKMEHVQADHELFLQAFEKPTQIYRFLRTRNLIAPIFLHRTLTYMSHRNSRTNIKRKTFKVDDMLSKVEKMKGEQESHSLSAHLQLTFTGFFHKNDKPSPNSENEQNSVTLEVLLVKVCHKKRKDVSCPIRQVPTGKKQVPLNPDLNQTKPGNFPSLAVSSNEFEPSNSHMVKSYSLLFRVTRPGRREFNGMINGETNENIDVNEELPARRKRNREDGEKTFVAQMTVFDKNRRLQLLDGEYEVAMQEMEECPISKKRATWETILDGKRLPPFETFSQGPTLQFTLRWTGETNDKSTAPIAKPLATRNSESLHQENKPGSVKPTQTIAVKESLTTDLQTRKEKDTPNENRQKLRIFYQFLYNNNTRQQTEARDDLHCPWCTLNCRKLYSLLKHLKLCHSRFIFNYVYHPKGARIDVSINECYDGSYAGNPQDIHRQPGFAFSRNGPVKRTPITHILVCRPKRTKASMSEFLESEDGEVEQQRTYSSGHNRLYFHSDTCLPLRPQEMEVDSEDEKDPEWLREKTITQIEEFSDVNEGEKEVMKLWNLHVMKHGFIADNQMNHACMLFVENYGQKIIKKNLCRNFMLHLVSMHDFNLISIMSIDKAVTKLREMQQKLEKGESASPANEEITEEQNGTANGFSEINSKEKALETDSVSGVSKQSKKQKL
Protocol: as §1, §2

[1] = tested on: H3K27me3 mark in HeLa cells; assay: H3K27me3 Alpha Hela Assay (AlphaLISA); format: cell-based; conditions: Homo sapiens, 72 hrs, read-out: EZH2_Cell_H3K27me3_Alpha_HeLa (EC50_K27me3)
Protocol: Ten different doses of each test compound (in a series of 3-fold dilutions) were plated in duplicate 384-well tissue culture treated plates (Catalog #781080; Greiner Bio One; Monroe, N.C.). Hela cells grown in culture were trypsinized and counted using a Countess® cell counter (Catalog # C10281; Life Technologies, Grand Island, N.Y.). Cell were diluted to 67,000 cells per mL in 10% DMEM (Catalog #10569-010 Life Technologies, Grand Island, N.Y.) and 15 μL (1,000 cells) were plated into each well using the Biotek MicroFlo™ Select Dispenser (BioTek Instruments, Inc. Vermont, USA),) of the 384-well plate. Plates were incubated at 37° C./5% CO2 for 72 hrs. One of the duplicate plates was processed for HeLa assay and the other for viability.
To the plate processed for AlphaLISA was added 5 μL per well Cell-Histone Lysis buffer (1λ) (Catalog # AL009F1 Perkin Elmer; Waltham, Mass.) and the plate was incubated at RT for 30 minutes on a plate shaker with low speed (Model#4625-Q Thermo Scientific; Waltham, Mass.). Then, 10 μL per well Histone Extraction buffer (catalog # AL009F2; Perkin Elmer; Waltham, Mass.) was added and the plate further incubated at RT for 20 min on plate shaker with low speed. To each well was then added 10 μL per well of a 5× mix of anti-K27me3 acceptor beads plus Biotinylated anti-Histone H3 (C-ter) Antibody (diluted to 3 nM final) (Catalog #AL118 Perkin Elmer; Waltham, Mass.). Dilution of the acceptor beads and then anti-Histone H3 was with 1× Histone Detection buffer (Catalog # AL009F3 Perkin Elmer; Waltham, Mass.) which was produced diluted from the 10× stock provided. The plate was sealed with an aluminum plate sealer and incubated at 23° C. for 60 min. We then added 10 μL 5× solution of Streptavidin Donor beads (Catalog #6760002 Perkin Elmer; Waltham, Mass.) (20 μg/mL final in 1× Histone Detection Buffer), sealed the plate with Aluminum plate sealer and incubated at 23° C. for 30 min. The plates were then read using an EnVision-Alpha Reader (model #2104 Perkin Elmer; Waltham, Mass.).
Data from both assays was analyzed using Assay Assistant (Constellation Pharmaceuticals In-house product) and Activity Base (IDBS Ltd, Surrey, UK) template. Data files were imported to Assay Assistant and assay conditions were specified. A unique Analysis ID was created and the data files exported to Activity Base. An analysis template was created on Activity Base to measure dose-dependent inhibition of H3K27me3 mark and cell viability respectively. Readout of DMSO wells were used to normalize the data. Resulting curves were fitted using Activity base software Model 205 (IDBS Ltd, Surrey, UK). The data was checked for quality, validated and integrated in excel format using SARview (IDBS Ltd, Surrey, UK).

[2] = Y641N EZH2, reconstituted H3K27Me2 oligonucleosomes as substrate, read-out: EZH2_Y641N_nuc_BSA_Brij_6.0 (IC50)
[3] = 2 nM EZH2, 0.2 μM 3H SAM, 0.2 μM biotinylated oligonucleosomes, 3.6 μM H3K27me3 peptide, 60 min, read-out: EZH2_nuc_BSA_Brij_1.5 (IC50)

Sequence of Y641N EZH2 (Q15910 whole entry Y641N): as the sequence (Q15910 whole entry) above, with Y641N counted along it
Sequence of Y641N EZH2 (O75530 whole entry partner): as the sequence (O75530 whole entry partner) above
Sequence of Y641N EZH2 (Q15022 whole entry partner): as the sequence (Q15022 whole entry partner) above

COc1cc(C)[nH]c(=O)c1CNC(=O)c1c(C)n([C@H](C)C2CCN(C(=O)C3(C(F)(F)F)CC3)CC2)c2ccccc12 [Compound 115]
IC50 (Y641N EZH2): < 100 nM | IC50 (EZH2): < 100 nM | EC50 [1]: < 400 nM

CNc1cc(C)[nH]c(=O)c1CNC(=O)c1c(C)n([C@H](C)C2CCN(c3ncc(F)cn3)CC2)c2ccccc12 [Compound 146]
IC50 (Y641N EZH2): < 100 nM | IC50 (EZH2): < 100 nM | EC50 [1]: 400 to 2000 nM

COc1cc(C)[nH]c(=O)c1CNC(=O)c1c(C)n([C@H](C)C2CCN(c3ccc(Cl)cc3)CC2)c2ccccc12 [Compound 154]
IC50 (Y641N EZH2): < 100 nM | IC50 (EZH2): < 100 nM | EC50 [1]: 400 to 2000 nM

COc1cc(C)[nH]c(=O)c1CNC(=O)c1c(C)n([C@H](C)C2CCN(CC(F)(F)C(F)(F)F)CC2)c2ccccc12 [Compound 113]
IC50 (Y641N EZH2): < 100 nM | IC50 (EZH2): < 100 nM | EC50 [1]: < 400 nM

Cc1cc(Cl)c(CNC(=O)c2c(C)n([C@H](C)C3CCN(CC(F)F)CC3)c3ccccc23)c(=O)[nH]1 [Compound 106]
IC50 (Y641N EZH2): < 100 nM | IC50 (EZH2): < 100 nM | EC50 [1]: < 400 nM

COc1cc(C)[nH]c(=O)c1CNC(=O)c1c(C)n([C@H](C)C2CCN(Cc3cc(F)cc(F)c3)CC2)c2ccccc12 [Compound 109, (R)-1-(1-(1-(3,5-difluorobenzyl)piperidin-4-yl)ethyl)-N-((4-methoxy-6-methyl-2-oxo-1,2-dihydropyridin-3-yl)methyl)-2-methyl-1H-indole-3-carboxamide]
IC50 (Y641N EZH2): < 100 nM | IC50 (EZH2): < 100 nM | EC50 [1]: < 400 nM

COc1cc(C)[nH]c(=O)c1CNC(=O)c1c(C)n([C@H](C)C2CCN(C(=O)N(C)C)CC2)c2ccccc12 [Compound 158]
IC50 (Y641N EZH2): < 100 nM | IC50 (EZH2): < 100 nM | EC50 [1]: 400 to 2000 nM

COc1cc(C)[nH]c(=O)c1CNC(=O)c1c(C)n([C@H](C)C2CCN(CC3(C(F)(F)F)CC3)CC2)c2ccccc12 [Compound 102]
IC50 (Y641N EZH2): < 100 nM | IC50 (EZH2): < 100 nM | EC50 [1]: < 400 nM

Cc1cc(Cl)c(CNC(=O)c2c(C)n([C@H](C)C3CCN(CC(C)(C)O)CC3)c3ccccc23)c(=O)[nH]1 [Compound 142]
IC50 (Y641N EZH2): < 100 nM | IC50 (EZH2): < 100 nM | EC50 [1]: < 400 nM

COCCOCCOCCOCCOCCOCCOC(=O)N1CCC([C@@H](C)n2c(C)c(C(=O)NCc3c(OC)cc(C)[nH]c3=O)c3ccccc32)CC1 [Compound 165]
IC50 (Y641N EZH2): 100 to 1000 nM | IC50 (EZH2): < 100 nM | EC50 [1]: > 2000 nM

COc1cc(C)[nH]c(=O)c1CNC(=O)c1c(C)n([C@H](C)C2CCN(c3cnccn3)CC2)c2ccccc12 [Compound 149]
IC50 (Y641N EZH2): < 100 nM | IC50 (EZH2): < 100 nM | EC50 [1]: 400 to 2000 nM

COc1cc(C)[nH]c(=O)c1CNC(=O)c1c(C)n([C@H](C)C2CCN(CC3CC3)CC2)c2ccccc12 [Compound 145]
IC50 (Y641N EZH2): < 100 nM | IC50 (EZH2): < 100 nM | EC50 [1]: 400 to 2000 nM

COc1cc(C)[nH]c(=O)c1CNC(=O)c1c(C)n([C@H](C)C2CCN(c3ccc(F)cc3)CC2)c2ccccc12 [Compound 141]
IC50 (Y641N EZH2): < 100 nM | IC50 (EZH2): < 100 nM | EC50 [1]: < 400 nM

Cc1cc(C)c(CNC(=O)c2c(C)n([C@H](C)C3CCN(S(=O)(=O)C4CNC4)CC3)c3ccccc23)c(=O)[nH]1 [Compound 171]
IC50 (Y641N EZH2; [2]): < 100 nM | IC50 (EZH2; [3]): < 100 nM

COc1cc(C)[nH]c(=O)c1CNC(=O)c1c(C)n([C@H](C)C2CCN(c3ccncn3)CC2)c2ccccc12 [Compound 164]
IC50 (Y641N EZH2): < 100 nM | IC50 (EZH2): < 100 nM | EC50 [1]: > 2000 nM

CNc1cc(C)[nH]c(=O)c1CNC(=O)c1c(C)n([C@H](C)C2CCN(CCC(F)(F)F)CC2)c2ccccc12 [Compound 155]
IC50 (Y641N EZH2): < 100 nM | IC50 (EZH2): < 100 nM | EC50 [1]: 400 to 2000 nM

COc1cc(C)[nH]c(=O)c1CNC(=O)c1c(C)n([C@H](C)C2CCN(C[C@H](OC)C(F)(F)F)CC2)c2ccccc12 [Compound 121]
IC50 (Y641N EZH2): < 100 nM | IC50 (EZH2): < 100 nM | EC50 [1]: < 400 nM

COc1cc(C)[nH]c(=O)c1CNC(=O)c1c(C)n([C@H](C)C2CCN(S(=O)(=O)C3CC3)CC2)c2ccccc12 [Compound 117, (R)-1-(1-(1-(cyclopropylsulfonyl)piperidin-4-yl)ethyl)-N-((4-methoxy-6-methyl-2-oxo-1,2-dihydropyridin-3-yl)methyl)-2-methyl-1H-indole-3-carboxamide]
IC50 (Y641N EZH2): < 100 nM | IC50 (EZH2): < 100 nM | EC50 [1]: < 400 nM

Cc1cc(Cl)c(CNC(=O)c2c(C)n([C@H](C)C3CCN(C4COC4)CC3)c3ccccc23)c(=O)[nH]1 [Compound 112]
IC50 (Y641N EZH2): < 100 nM | IC50 (EZH2): < 100 nM | EC50 [1]: < 400 nM

COc1cc(C)[nH]c(=O)c1CNC(=O)c1c(C)n([C@H](C)C2CCN(Cc3ccccn3)CC2)c2ccccc12 [Compound 148]
IC50 (Y641N EZH2): < 100 nM | IC50 (EZH2): < 100 nM | EC50 [1]: 400 to 2000 nM

Cc1cc(C)c(CNC(=O)c2c(C)n([C@H](C)C3CCN(S(=O)(=O)CCN4CCOCC4)CC3)c3ccccc23)c(=O)[nH]1 [Compound 134]
IC50 (Y641N EZH2): < 100 nM | IC50 (EZH2): < 100 nM | EC50 [1]: < 400 nM

COc1cc(C)[nH]c(=O)c1CNC(=O)c1c(C)n([C@H](C)C2CCN(CC(C)(C)F)CC2)c2ccccc12 [Compound 116]
IC50 (Y641N EZH2): < 100 nM | IC50 (EZH2): < 100 nM | EC50 [1]: < 400 nM

CCc1cc(C)[nH]c(=O)c1CNC(=O)c1c(C)n([C@H](C)C2CCN(CCC(F)(F)F)CC2)c2ccccc12 [Compound 151]
IC50 (Y641N EZH2): < 100 nM | IC50 (EZH2): < 100 nM | EC50 [1]: 400 to 2000 nM

COc1cc(C)[nH]c(=O)c1CNC(=O)c1c(C)n([C@H](C)C2CCN(C(=O)N3CCOCC3)CC2)c2ccccc12 [Compound 167]
IC50 (Y641N EZH2): < 100 nM | IC50 (EZH2): < 100 nM | EC50 [1]: > 2000 nM

COc1cc(C)[nH]c(=O)c1CNC(=O)c1c(C)n([C@H](C)C2CCN(CC(F)(F)C(F)F)CC2)c2ccccc12 [Compound 103]
IC50 (Y641N EZH2): < 100 nM | IC50 (EZH2): < 100 nM | EC50 [1]: < 400 nM

Cc1cc(C)c(CNC(=O)c2c(C)n([C@H](C)C3CCN(C(=O)N4CCN(C)CC4)CC3)c3ccccc23)c(=O)[nH]1 [Compound 162]
IC50 (Y641N EZH2): < 100 nM | IC50 (EZH2): < 100 nM | EC50 [1]: 400 to 2000 nM

COc1cc(C)[nH]c(=O)c1CNC(=O)c1c(C)n([C@H](C)C2CCN(c3ccc(F)cn3)CC2)c2ccccc12 [Compound 131]
IC50 (Y641N EZH2): < 100 nM | IC50 (EZH2): < 100 nM | EC50 [1]: < 400 nM

COc1cc(C)[nH]c(=O)c1CNC(=O)c1c(C)n([C@H](C)C2CCN(CC3(F)CCC3)CC2)c2ccccc12 [Compound 118]
IC50 (Y641N EZH2): < 100 nM | IC50 (EZH2): < 100 nM | EC50 [1]: < 400 nM

Cc1cc(C)c(CNC(=O)c2c(C)n([C@H](C)C3CCN(S(=O)(=O)C4CCNCC4)CC3)c3ccccc23)c(=O)[nH]1 [Compound 172]
IC50 (Y641N EZH2; [2]): < 100 nM | IC50 (EZH2; [3]): < 100 nM
